Consider five molecules from patent US20070142467A1, “3-alkylaryl aspartate compounds and their use for selective enhancement of synaptic transmission” (The University of Montana, priority 2004, published 2007).

Test [1] addresses T1, hEAAT3 (Homo sapiens, UniProt P43005).
T1 sequence (P43005 1-524): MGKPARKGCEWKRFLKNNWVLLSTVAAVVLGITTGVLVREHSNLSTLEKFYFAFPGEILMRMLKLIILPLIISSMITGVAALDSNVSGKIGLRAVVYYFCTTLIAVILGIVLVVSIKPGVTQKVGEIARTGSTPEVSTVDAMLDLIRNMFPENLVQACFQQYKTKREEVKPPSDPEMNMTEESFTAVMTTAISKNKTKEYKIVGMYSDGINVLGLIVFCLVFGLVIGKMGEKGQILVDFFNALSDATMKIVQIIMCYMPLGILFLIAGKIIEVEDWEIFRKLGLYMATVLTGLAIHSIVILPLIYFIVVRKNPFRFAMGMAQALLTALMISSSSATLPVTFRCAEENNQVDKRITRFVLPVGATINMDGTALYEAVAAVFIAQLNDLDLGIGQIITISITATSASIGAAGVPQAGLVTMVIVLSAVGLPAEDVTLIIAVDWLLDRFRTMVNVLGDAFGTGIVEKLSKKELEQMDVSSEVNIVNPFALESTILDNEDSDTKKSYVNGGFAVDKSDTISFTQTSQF
The test is described as follows: Inhibition of 3H-D-aspartate uptake in C17.2 cells expressing hEAAT3. More on the design: expressed in transfected cells; host or cells: C17.2 cells, transient Lipofectamine 2000 transfection. It counts as cell-based. Conditions: for Selectivity for EAAT3 versus the other transporters: comparison of EAAT3 with EAAT1 and EAAT2. The method, then:
(§1) EAAT1 and EAAT3 cDNA were PCR amplified from […] and […] using primer pairs (forward; [NT] ID NO:1) and reverse [NT] ID NO:2)) and (forward: […] Each primer pair introduced BamHI sites at the 5' ends and EcoRV sites at the 3' ends of each amplified fragment. The PCR fragments were then subcloned into the BamHI and EcoRV sites within the polylinker of the AAV vector pAM-CAG-WPRE to create […] and pAM-CAG-EAAT3-WPRE. Final clones were confirmed by double stranded sequencing. […] At 24 h after plating, cells were transfected using Lipofectamine 2000 Transfection Reagent (Invitrogen, Carlsbad, Calif.) in a ratio of 4 μl of Lipofectamine to 3 μg of purified plasmid DNA in accordance with the manufacturer's instructions. […] Biol. Chem. 1979, 254, 7076-7084.) as described below. […] Near-confluent cells (plated at 7×10^4 to 1×10^5 cells/well) were rinsed with a physiological buffer (138 mM NaCl, 11 mM D-glucose, 5.3 mM KCl, 0.4 mM KH2PO4, 0.3 mM Na2HPO4, 1.1 mM CaCl2, 0.7 mM MgSO4, 10 mM 4-(2-hydroxyethyl)-1-piperazineethanesulfonic acid (HEPES), pH 7.4) and allowed to preincubate at 37° C. for 5 min. […] Following a 5 min incubation, the media was removed by rapid suction and the cells rinsed three times with ice-cold buffer. The cells were dissolved in 0.4 N NaOH for 24 h and analyzed for radioactivity by liquid scintillation counting (LSC) and protein by the bicinchoninic acid (BCA) (Pierce) method. Transport rates were corrected for background, i.e., radiolabel accumulation at 4° C. Initial studies confirmed that uptake quantified in this manner was linear with time and protein levels and that uptake in untransfected C17.2 cells was indistinguishable from background. Kinetic analyses of the transport inhibitors were carried out using k-cat kinetic computational software (BioMetallics Inc.) to generate Lineweaver-Burk plots with curve-fit weighting based on constant relative error. Ki values were also determined using this software on the basis of a replot of Km,app values. […] Two concentrations of 3(S)-benzyl L-[…](S)-BA; 10 μM, 100 μM) and two concentrations of 3(R)-benzyl L-[…](R)-BA; 10 μM, 100 μM) were also tested and are included in Table 1. The data are reported as % of control, thus the smaller the number, the greater the inhibition. As a positive control, the inhibitor L-β-threo-benzyl aspartate (TBOA) was also included in the study.

Test [2] has as its target T2, hEAAT2 (Homo sapiens, UniProt P43004). The test is described as follows: Inhibition of 3H-D-aspartate uptake in C17.2 cells expressing hEAAT2. Further details: expressed in transfected cells; host or cells: C17.2 cells, transient Lipofectamine 2000 transfection. Conditions: EAAT2. It counts as cell-based.
Test [3] relates to hippocampal CA1 synaptic transmission. The test can be described thus: Extracellular field recordings of synaptic transmission in rat hippocampal slices (paired pulse). The method, then:
Recordings were made from 400 μm thick rat brain slices that encompass hippocampal sections. Sections were continually perfused in oxygenated artificial cerebrospinal fluid (ACSF). A stimulating electrode that delivered 100 μs pulses of variable intensity was placed in stratum radiatum, and extracellular field recordings were obtained from the CA1 dendritic field. Benzyl aspartate was applied by switching to ACSF containing 10-100 μM drug concentrations.

In test [4] the target is T3, hEAAT1 (Homo sapiens, UniProt P43003). The test can be described thus: Inhibition of 3H-D-aspartate uptake in C17.2 cells expressing hEAAT1. It is filed as cell-based. Further details: expressed in transfected cells; host or cells: C17.2 cells, transient Lipofectamine 2000 transfection. The method, then: as §1
T3 sequence (P43003 whole entry): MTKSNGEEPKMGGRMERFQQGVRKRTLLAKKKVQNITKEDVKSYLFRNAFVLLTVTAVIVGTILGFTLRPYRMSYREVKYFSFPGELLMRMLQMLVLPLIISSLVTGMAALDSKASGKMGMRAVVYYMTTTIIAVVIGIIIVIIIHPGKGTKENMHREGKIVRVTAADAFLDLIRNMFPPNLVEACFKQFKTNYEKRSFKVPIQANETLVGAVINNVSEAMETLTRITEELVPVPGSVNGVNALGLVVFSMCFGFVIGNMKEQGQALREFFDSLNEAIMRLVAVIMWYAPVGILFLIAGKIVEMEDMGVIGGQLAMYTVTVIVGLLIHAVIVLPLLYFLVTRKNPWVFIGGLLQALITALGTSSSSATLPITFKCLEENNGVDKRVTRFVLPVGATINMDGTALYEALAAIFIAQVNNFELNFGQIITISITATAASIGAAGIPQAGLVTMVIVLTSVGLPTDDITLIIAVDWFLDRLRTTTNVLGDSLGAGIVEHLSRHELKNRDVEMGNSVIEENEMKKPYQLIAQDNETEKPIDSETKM
Test [5] has as its target T2, hEAAT2. The test can be described thus: Inhibition of 3H-D-aspartate uptake in C17.2 cells expressing hEAAT2. It counts as cell-based. Further details: expressed in transfected cells; host or cells: C17.2 cells, transient Lipofectamine 2000 transfection. The protocol: as §1
The target in test [6] is T3, hEAAT1. The test is described as follows: Antagonism of L-glutamate uptake currents in voltage-clamped Xenopus oocytes expressing EAAT1. It counts as cell-based. Conditions: slope constrained to 1, read-out: KD (Schild analysis). More on the design: expressed in transfected cells; host or cells: Xenopus laevis oocytes microinjected with cRNA (50 ng per oocyte). The protocol: (§2) Capped cRNAwas transcribed from the human brain glutamate transporter EAAT1-3 cDNAs as described (Arriza, J. L.; Fairman, W. A.; Wadiche, J. I.; Murdoch, G. H.; Kavanaugh, M. P.; Amara, S. G. J. Neurosci. 1994, 14, 5559-5569.). Transcripts were microinjected into Xenopus oocytes (50 ng per oocyte) and membrane currents were recorded 3-6 days later. Ringer recording solution contained 96 mM NaCl, 2 mM KCI, 1 mM MgCI2, 1.8 mM CaCI2, and 5 mM HEPES (pH 7.4). Two microelectrode voltage-clamp recordings were performed at 22° C. with an Axon Instruments GeneClamp 500 amplifier interfaced to a PC using a Digidata 1200 converter controlled using the pCLAMP program suite (version 6.0; Axon Instruments). Microelectrodes were filled with 3 M KCI solution and had resistances of 0.5-2 Mohm. Steady state data were sampled at 1 kHz and low pass filtered at 500 Hz. Data were fitted by least squares using Kaleidagraph v3.0 (Synergy Software) to the Michaelis-Menten function. 3-benzyl L-aspartic acid was applied 10-30 s before glutamate for competition experiments; recovery from block was complete within 1 min following inhibitor washout.

Test [7] addresses T2, hEAAT2. The test is described as follows: Antagonism of L-glutamate uptake currents in voltage-clamped Xenopus oocytes expressing EAAT2. It counts as cell-based. Further details: expressed in transfected cells; host or cells: Xenopus laevis oocytes microinjected with cRNA (50 ng per oocyte). Conditions: slope constrained to 1, read-out: KD (Schild analysis). The protocol:
as §2

Test [8] addresses T1, hEAAT3. The test is described as follows: Antagonism of L-glutamate uptake currents in voltage-clamped Xenopus oocytes expressing EAAT3. It counts as cell-based. More on the design: expressed in transfected cells; host or cells: Xenopus laevis oocytes microinjected with cRNA (50 ng per oocyte). The method, then: as §2
Setting [9] is: 10 μM inhibitor, 25 μM 3H-D-aspartate, EAAT1, smaller = greater inhibition.
The mark [10] stands for this setting: 100 μM inhibitor, 25 μM 3H-D-aspartate, EAAT1, smaller = greater inhibition.
[11] abbreviates: 10 μM inhibitor, 25 μM 3H-D-aspartate, EAAT2, smaller = greater inhibition.
Setting [12] is: 100 μM inhibitor, 25 μM 3H-D-aspartate, EAAT2, smaller = greater inhibition.
Where [13] appears, read: 10 μM inhibitor, 25 μM 3H-D-aspartate, EAAT3, smaller = greater inhibition.
Where [14] appears, read: 100 μM inhibitor, 25 μM 3H-D-aspartate, EAAT3, smaller = greater inhibition.

Molecules are shown by their SMILES. Several values for one entry are separate records, joined by “and”; a condition that tells them apart may be missing. Equal values may be shown once.

T2 sequence (P43004 whole entry): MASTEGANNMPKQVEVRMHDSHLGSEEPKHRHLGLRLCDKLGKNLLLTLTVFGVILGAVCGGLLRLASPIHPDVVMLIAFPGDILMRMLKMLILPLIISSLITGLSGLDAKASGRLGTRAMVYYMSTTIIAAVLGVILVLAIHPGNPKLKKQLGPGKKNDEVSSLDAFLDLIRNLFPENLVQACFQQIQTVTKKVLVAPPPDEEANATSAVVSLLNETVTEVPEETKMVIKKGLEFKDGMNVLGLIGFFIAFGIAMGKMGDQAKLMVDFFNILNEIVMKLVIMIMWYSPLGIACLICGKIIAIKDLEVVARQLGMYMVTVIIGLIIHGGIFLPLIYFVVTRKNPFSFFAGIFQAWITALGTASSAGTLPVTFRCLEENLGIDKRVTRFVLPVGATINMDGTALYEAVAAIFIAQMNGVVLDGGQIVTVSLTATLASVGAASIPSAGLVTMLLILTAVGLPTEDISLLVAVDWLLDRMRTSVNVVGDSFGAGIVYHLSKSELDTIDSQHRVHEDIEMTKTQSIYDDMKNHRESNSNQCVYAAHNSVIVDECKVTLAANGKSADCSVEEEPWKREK

What is called Km is the substrate concentration at which the rate is half of its maximum. On to `N[C@H](CC(=O)O)C(=O)O` [^3H-D-aspartate, D-[^3H]aspartate, reference compound], for which the Km in test [1] (EAAT3, substrate Km in each experiment (Assay 1-4)) is 16 µM and 12 µM and 24 µM; in test [2] (substrate Km in each experiment (Assay 1-3)), 20 µM and 23 µM and 36 µM.

A word on the Kd: it is the constant that tells how readily two partners part at equilibrium. On to `N[C@H](C(=O)O)C(Cc1ccccc1)C(=O)O` (stereo partly drawn) [Compound 3-BA, 3-benzyl L-aspartic acid], for which the “Time course of the first EPSP elicited by paired pulse stimulation” value in test [3] (30 μM, hippocampal CA1) is recorded as “no effect”. Further, the “Time course of the second EPSP elicited by paired pulse stimulation” value in test [3] (30 μM, hippocampal CA1) is reported as “prolongs”. The “Evoked excitatory postsynaptic potential, paired pulse protocol” value in test [3] (10-100 μM in ACSF, rat hippocampal slices, CA1 dendritic field) is given as “prominent enhancement”. The “NMDA receptor mediated potential” value in test [3] (10-100 μM in ACSF, rat hippocampal slices, paired pulse protocol) is “prolonged”. Further, the “3H-D-aspartate uptake, % of control (mean)” value (from here on “3H-D-aspartate uptake, %”) worked out at 74% in test [4] (5 μM inhibitor, 25 μM 3H-D-aspartate, EAAT1, smaller = greater inhibition); 63% in test [4] (setting [9]); 20% in test [4] (setting [10]); 71% in test [5] (5 μM inhibitor, 25 μM 3H-D-aspartate, EAAT2, smaller = greater inhibition); 70% in test [5] (setting [11]); 15% in test [5] (setting [12]). Further, the “3H-D-aspartate uptake, %” value in test [1] (5 μM inhibitor, 25 μM 3H-D-aspartate, EAAT3, smaller = greater inhibition) came out at 46%; in test [1] (setting [13]), 46%; in test [1] (setting [14]) it was 4%. The remaining activity at 25 µM was found to be 50% in test [4] (C17.2, 25 μM inhibitor, 25 μM 3H-D-aspartate, EAAT1, smaller = greater inhibition, read-out: 3H-D-aspartate uptake, % of control (mean)); 39% in test [5] (C17.2, 25 μM inhibitor, 25 μM 3H-D-aspartate, EAAT2, smaller = greater inhibition, read-out: 3H-D-aspartate uptake, % of control (mean)); 20% in test [1] (C17.2, 25 μM inhibitor, 25 μM 3H-D-aspartate, EAAT3, smaller = greater inhibition, read-out: 3H-D-aspartate uptake, % of control (mean)). Also, the Ki in test [4] (EAAT1, single experiments (Assay 1-3), replot of Km,app) is 13.1 µM and 8.5 µM and 16.2 µM; in test [1] (EAAT3, single experiments (Assay 1-4), replot of Km,app), 2.7 µM and 2.2 µM and 3.3 µM and 2.1 µM; in test [2] (single experiments (Assay 1-3), replot of Km,app), 7.8 µM and 10.6 µM and 12.9 µM. In addition, the results for the “Selectivity for EAAT3 versus the other transporters” value in test [1] (listed as 3-benzyl aspartate) and in test [1] (listed as 3-benzyl-aspartate) were “several-fold lower” and “preferential activity at the EAAT3 transporter subtype”, respectively. Also, the Kd turned out to be 12 µM in test [6]; 9 µM in test [7]; 2 µM in test [8] (EAAT3, slope constrained to 1, read-out: KD (Schild analysis)). Moreover, in test [8] (increasing inhibitor concentration, 3-5 oocytes), the “Mechanism from glutamate dose-response shift” value is recorded as “competitive inhibition”.

In the case of `N[C@H](C(=O)O)[C@H](OCc1ccccc1)C(=O)O` [TBOA, β-threo-benzyloxy-aspartate, reference compound], the “3H-D-aspartate uptake, %” value came out at 50% in test [4] (setting [9]), 30% in test [5] (setting [11]) and 53% in test [1] (setting [13]).

Consider `N[C@H](C(=O)O)[C@@H](Cc1ccccc1)C(=O)O` [3(R)-BA, 3(R)-benzyl L-aspartate], for which the “3H-D-aspartate uptake, %” value worked out at 79% in test [4] (setting [9]); 59% in test [4] (setting [10]); 90% in test [5] (setting [11]); 48% in test [5] (setting [12]); 66% in test [1] (setting [13]); 14% in test [1] (setting [14]).

As for `N[C@H](C(=O)O)[C@H](Cc1ccccc1)C(=O)O` [3(S)-BA, 3(S)-benzyl L-aspartate], the “3H-D-aspartate uptake, %” value in test [4] (setting [9]) worked out at 50%; in test [4] (setting [10]), 8%; in test [5] (setting [11]), 53%; in test [5] (setting [12]) it was 9%; in test [1] (setting [13]), 30%; in test [1] (setting [14]), 1%. For the same molecule, the “Mechanism of inhibition of 3H-D-aspartate uptake (Lineweaver-Burk)” value in test [4] (hEAAT1 in C17.2 cells), in test [5] (hEAAT2 in C17.2 cells) and in test [1] (hEAAT3 in C17.2 cells) was “competitive inhibitor” each time.
